For 10 compounds, GI50 and TGI results are on record in PubChem BioAssay (NCI).

Structures are written as SMILES.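 Five concentrations, 48 hours, 96-well plates. GI50 marks 50% less growth. Definition used: TGI = concentration required for complete inhibition of growth.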

Test systems include KM12 colon; SF-295 CNS; SK-MEL-5 melanoma; NCI/ADR-RES ovarian; U251 CNS; RPMI-8226 leukemia; SK-MEL-28 melanoma; ACHN renal; MOLT-4 leukemia; HL-60(TB) leukemia.
What all share (assay): inhibition of tumour cell growth, NCI panel, 48 h

As to `O=C(CN1C(=O)S/C(=C\C(Cl)=C\c2ccccc2)C1=O)NCCc1ccc(O)cc1`, the GI50 in the assay on KM12 colon is 1.7 µM; with SF-295 CNS, 2100 nM; in the assay on SK-MEL-5 melanoma it was 1.8 µM; in the assay with NCI/ADR-RES ovarian, 2.44 µM; in the assay with U251 CNS, 2 µM; in the assay with RPMI-8226 leukemia, 1740 nM. Besides, the GI50 in the assay with SK-MEL-28 melanoma is 1730 nM; with ACHN renal, 2550 nM; in the assay on MOLT-4 leukemia it was 2380 nM. For the same compound, the TGI with KM12 colon was 3.43 µM; in the assay with SF-295 CNS, 4.29 µM; with SK-MEL-5 melanoma, 3.4 µM; in the assay on NCI/ADR-RES ovarian, 8.81 µM; in the assay with U251 CNS, 5.16 µM; in the assay with RPMI-8226 leukemia, 6.96 µM. In addition, the TGI with SK-MEL-28 melanoma is 3.44 µM; with ACHN renal it was 8.06 µM; with MOLT-4 leukemia it was above 100 µM.
`CCN(CC)CCCC(Cc1ccccc1)Nc1c2ccc(Cl)cc2nc2ccc(OC)cc12` (stereo not given): the GI50 with KM12 colon is 2.79 µM; in the assay on SF-295 CNS, 1860 nM; with NCI/ADR-RES ovarian it was 3.02 µM; in the assay on U251 CNS it was 1.56 µM; in the assay with HL-60(TB) leukemia it was 2110 nM; in the assay on RPMI-8226 leukemia, 2080 nM. The GI50 in the assay on SK-MEL-28 melanoma is 1840 nM; with ACHN renal, 2010 nM; in the assay with MOLT-4 leukemia it was 1910 nM. The TGI with KM12 colon is 10.3 µM; in the assay on SF-295 CNS, 3.55 µM; in the assay with NCI/ADR-RES ovarian it was 10.4 µM; in the assay on U251 CNS it was 3.11 µM; in the assay with HL-60(TB) leukemia it was 4.45 µM; with RPMI-8226 leukemia, 5.26 µM. In addition, the TGI amounted to 3.59 µM with SK-MEL-28 melanoma, 4.5 µM with ACHN renal and 5.7 µM with MOLT-4 leukemia.
`Clc1ccc(C2=NN[C@H](c3cn(-c4ccccc4)nc3-c3ccccc3)C2)cc1`: the GI50 in the assay on KM12 colon is 11.1 µM; in the assay with SF-295 CNS, 3360 nM; with SK-MEL-5 melanoma, 19 µM; in the assay on NCI/ADR-RES ovarian, 3.17 µM; in the assay on U251 CNS, 3.17 µM; in the assay with HL-60(TB) leukemia it was 19800 nM. The GI50 with RPMI-8226 leukemia is 14100 nM; in the assay on SK-MEL-28 melanoma it was 2650 nM; in the assay with MOLT-4 leukemia, 19600 nM. Moreover, the TGI with KM12 colon was above 100 µM; in the assay on SF-295 CNS it was 13.2 µM; in the assay with SK-MEL-5 melanoma, above 100 µM; in the assay with NCI/ADR-RES ovarian, 12.7 µM; in the assay on U251 CNS it was 11.7 µM; in the assay with HL-60(TB) leukemia, above 100 µM. Moreover, the TGI in the assay with RPMI-8226 leukemia is above 100 µM; in the assay on SK-MEL-28 melanoma it was 6.69 µM; in the assay with MOLT-4 leukemia it was above 100 µM.
On to `CCC[CH2][Sn]1([CH2]CCC)[O]CC(CN2CCOCC2)[O]1` (stereo not given), for which the GI50 in the assay on KM12 colon was 10.4 µM; in the assay on SF-295 CNS, 2460 nM; in the assay on SK-MEL-5 melanoma it was 5.4 µM; with U251 CNS it was 3.05 µM; in the assay with HL-60(TB) leukemia it was 1170 nM; in the assay on RPMI-8226 leukemia it was 1440 nM. The figures for the GI50 in the assay on SK-MEL-28 melanoma, in the assay on ACHN renal and with MOLT-4 leukemia were 2890 nM, 3020 nM and 2220 nM, respectively. Also, the TGI in the assay on KM12 colon worked out at 22.5 µM; in the assay on SF-295 CNS, 10.9 µM; in the assay with SK-MEL-5 melanoma, 18.2 µM; in the assay with U251 CNS it was 11 µM; in the assay on HL-60(TB) leukemia, 3.62 µM; in the assay with RPMI-8226 leukemia, 4.7 µM. Besides, the TGI with SK-MEL-28 melanoma amounted to 11.3 µM; in the assay with ACHN renal, 9.61 µM; in the assay with MOLT-4 leukemia, 7.88 µM.
As for `COc1ccc(C(=O)C(C(=O)C(=O)NC2C3CC4CC(C3)CC2C4)c2ccc(OC)cc2)cc1` (stereo not given), the TGI with KM12 colon, with SF-295 CNS, in the assay on SK-MEL-5 melanoma, in the assay on U251 CNS, in the assay on HL-60(TB) leukemia and in the assay on RPMI-8226 leukemia was above 100 µM throughout. Besides, the TGI in the assay with SK-MEL-28 melanoma, with ACHN renal and in the assay on MOLT-4 leukemia was above 100 µM throughout.
Consider `CCCCCNC(=O)c1c(O)[nH]c(=S)[nH]c1=O`, for which the TGI in the assay with KM12 colon, in the assay on SF-295 CNS, in the assay with SK-MEL-5 melanoma, with U251 CNS, with HL-60(TB) leukemia and in the assay on RPMI-8226 leukemia was above 100 µM each time. The TGI with SK-MEL-28 melanoma, in the assay on ACHN renal and with MOLT-4 leukemia was above 100 µM in each case.
With `CCCc1nc(NC#N)nc(C(=O)NC23CC4CC(CC(C4)C2)C3)c1C`, the TGI with KM12 colon, in the assay with SF-295 CNS, in the assay with SK-MEL-5 melanoma, with U251 CNS, in the assay on HL-60(TB) leukemia and with RPMI-8226 leukemia was above 100 µM in each case. The TGI in the assay with SK-MEL-28 melanoma, in the assay on ACHN renal and with MOLT-4 leukemia was above 100 µM throughout.
`CN(C)C1=NC2=S(SC(Nc3ccccc3)=N2)S1` (stereo not given): the TGI was above 100 µM in the assay with KM12 colon; 88.9 µM with SF-295 CNS; 28.8 µM in the assay on SK-MEL-5 melanoma; above 100 µM in the assay on U251 CNS; above 100 µM with HL-60(TB) leukemia; 57.1 µM in the assay with RPMI-8226 leukemia. Also, the TGI in the assay on SK-MEL-28 melanoma is 56.2 µM; in the assay with ACHN renal it was above 100 µM; in the assay on MOLT-4 leukemia it was above 100 µM.
Turning to `O=C1CC[C@H](c2ccc(O)c3c2C(=O)[C@@H]2O[C@@H]2C3=O)c2cccc(O)c21`, the GI50 in the assay with KM12 colon is 3.51 µM; in the assay with SF-295 CNS it was 15400 nM; in the assay with SK-MEL-5 melanoma, 3.54 µM; in the assay with NCI/ADR-RES ovarian it was 3.01 µM; in the assay on U251 CNS, 11.6 µM; with HL-60(TB) leukemia it was 1930 nM. Further, the GI50 with SK-MEL-28 melanoma is 1830 nM; in the assay with ACHN renal, 1460 nM; in the assay on MOLT-4 leukemia, 2710 nM. In addition, the TGI in the assay with KM12 colon turned out to be 12.9 µM; in the assay with SF-295 CNS, 29.7 µM; in the assay on SK-MEL-5 melanoma it was 12.1 µM; with NCI/ADR-RES ovarian it was 15.1 µM; in the assay with U251 CNS it was 25.2 µM; with HL-60(TB) leukemia, 5.87 µM. Further, the TGI is 3.62 µM in the assay with SK-MEL-28 melanoma, 4.16 µM with ACHN renal and 17.4 µM in the assay on MOLT-4 leukemia.
Regarding `CC1=NC(C(C)C)C(=O)O1` (stereo not given), the TGI in the assay on KM12 colon is above 100 µM; in the assay with SF-295 CNS it was above 100 µM; in the assay with SK-MEL-5 melanoma, above 100 µM; in the assay on U251 CNS, above 100 µM; in the assay on HL-60(TB) leukemia, above 100 µM; in the assay on RPMI-8226 leukemia, 56 µM. Moreover, the TGI in the assay with SK-MEL-28 melanoma, in the assay with ACHN renal and with MOLT-4 leukemia was above 100 µM throughout.
